Values after ≈ are worked out from the molar mass of the structure shown. Read-outs that look alike come from different tables or passages of the source.
Columns and labels:
[1] = test system: Bacteroides vulgates; assay: in vitro MIC test (Table I); assay type: cell-based; settings: 24 h
Procedure: (§1) In Table I, below, the results of in vitro MIC tests are summarized. For this test each organism is inoculated in a series of test tubes of CP-63,517 to determine the minimal concentration of the antibiotic in mcg/ml which inhibits the growth of the organism over a period of 24 hours (MIC).

[2] = test system: Bordatella bronchi; assay: in vitro MIC test (Table I); assay type: cell-based; settings: 24 h
Procedure: as §1

[3] = test system: Corynebacterium pyogenes; assay: in vitro MIC test (Table I); assay type: cell-based; settings: 24 hours
Procedure: as §1

[4] = test system: Erysip. rhusio; assay: in vitro MIC test (Table I); assay type: cell-based; settings: strain 04A005; 24 hours
Procedure: as §1

[5] = test system: F. necrophorum; assay: in vitro MIC test (Table I); assay type: cell-based; settings: Fusobacterium necrophorum; strain 84C004; 24 hours
Procedure: as §1

[6] = test system: Fusobacterium plauti; assay: in vitro MIC test (Table I); assay type: cell-based; settings: Flavonifractor plautii; strain 84G001; 24 hours
Procedure: as §1

[7] = test system: Haemophilus parahemol.; assay: in vitro MIC test (Table I); assay type: cell-based; settings: strain 54B002, 24 hours
Procedure: as §1

[8] = test system: L. catenaforme; assay: in vitro MIC test (Table I); assay type: cell-based; settings: strain 09C001; 24 hours
Procedure: as §1

[9] = test system: Lactobacillus casei; assay: in vitro MIC test (Table I); assay type: cell-based; settings: Lacticaseibacillus casei; strain 09B001; 24 hours
Procedure: as §1

[10] = test system: Moraxella bovis; assay: in vitro MIC test (Table I); assay type: cell-based; settings: strain 93A001, 24 hours
Procedure: as §1

[11] = test system: P. haemolytica; assay: in vitro MIC test (Table I); assay type: cell-based; settings: Mannheimia haemolytica, 24 h
Procedure: as §1

[12] = test system: Pasteurella multocida; assay: in vitro MIC test (Table I); assay type: cell-based; settings: 24 h
Procedure: as §1

[13] = test system: Peptococcus sp.; assay: in vitro MIC test (Table I); assay type: cell-based; settings: strain 17B001; 24 hours
Procedure: as §1

[14] = test system: Staphylococcus aureus; assay: in vitro MIC test (Table I); assay type: cell-based; settings: 24 h
Procedure: as §1

[15] = test system: Staphylococcus epidermidis; assay: in vitro MIC test (Table I); assay type: cell-based; settings: 24 h
Procedure: as §1

[16] = test system: Streptococcus pyogenes; assay: in vitro MIC test (Table I); assay type: cell-based; settings: strain 020054, 24 hours
Procedure: as §1

[17] = test system: Treponema hyodysenteriae; assay: in vitro MIC test (Table I); assay type: cell-based; settings: for MIC: 24 hours
Procedure: as §1

[18] = test system: Eimeria tenella; assay: efficacy against coccidial infections in chickens (Table II); assay type: in vivo; settings: for Ratio: lesion score treated / infected control; for % Weight Gain / Average Degree of Infection: chicks; for Average Degree of Infection: lesion score 0 to 4, six days
Procedure: (§2) Efficacy data for Antibiotic CP-63,517 and its salts against coccidial infections in chickens was obtained in the following fashion. Groups of 3-5 ten-day old SPF white leghorn cockerel chicks were fed a mash diet containing Antibiotic CP-63,517, its sodium and/or potassium salt, or the known agents Monensin or Stenorol uniformly dispersed therein. After being on this ration for 24 hours each chick was inoculated per os with oocysts of the particular species of Eimeria being tested. Other groups of 3-5 ten-day old chicks were fed a similar mash diet free of any test compound. They were also infected after 24 hours and served as infected controls. Yet another group of 3-5 ten-day old chicks were fed the mash diet free of any test compound and were not infected with coccidia. These served as normal controls. The results of treatment were evaluated after five days in the case of E. acervulina, and six days for other challenges.
^1 The criteria used to measure anticoccidial activity consisted of
lesion scores of 0 to 4 for Eimeria tenella after J. E. Lynch, "A New
Method for the Primary Evaluation of Anticoccidial Activity", Am. J. Vet.
modification of the scoring system devised by J. Johnson and W. H. Reid,
"Anticoccidial Drugs. Lesion Scoring Techniques in Battery and Floor Pen
Experiments in Chicks", Exp. Parasit. 28: 30-36 (1970). A constant ratio
was established by dividing the lesion score of each treated group by the
lesion score of the infected control.

[19] = test system: Gram-positive microorganisms; assay: inhibitory action against growth of Gram-positive microorganisms; assay type: cell-based; settings: in vitro
Procedure: as §1

[20] = test system: coccidial infections; assay: activity against coccidial infections in poultry; settings: in vivo
Procedure: as §2

[21] = 10 ppm in diet, replicate (in parentheses)
[22] = 20 ppm in diet, replicate (in parentheses)
[23] = 30 ppm in diet, replicate (in parentheses)
[24] = 40 ppm in diet, replicate (in parentheses)

COC1CCC(OC2CC3(CC(O)C(C)C(C(C)C=C(C)C(=O)C(C)CC(C)C(=O)O)O3)OC2(C)C2CCC(C)C3(OC(C4OC(O)(CO)C(C)CC4C)CC3C)O2)OC1C (stereo not shown) [CP-63,517]
MIC [1]: 25 µg/mL (≈ 28.8 µM) | MIC ([2]; strain 73A006): 0.39 µg/mL (≈ 0.45 µM) | MIC ([2]; strain 73A016): 6.25 µg/mL (≈ 7.21 µM) | MIC ([3]; Trueperella pyogenes, strain 11D001, read-out: MIC): 12.5 µg/mL (≈ 14.4 µM) | MIC ([3]; strain 11D002): 12.5 µg/mL (≈ 14.4 µM) | MIC ([3]; strain 11D003): 12.5 µg/mL (≈ 14.4 µM) | MIC [4]: 0.39 µg/mL (≈ 0.45 µM) | MIC [5]: 25 µg/mL (≈ 28.8 µM) | MIC [6]: 0.39 µg/mL (≈ 0.45 µM) | MIC [7]: 25 µg/mL (≈ 28.8 µM) | MIC [8]: 0.39 µg/mL (≈ 0.45 µM) | MIC [9]: 0.39 µg/mL (≈ 0.45 µM) | MIC [10]: 50 µg/mL (≈ 57.7 µM) | MIC ([11]; strain 59B018): 0.39 µg/mL (≈ 0.45 µM) | MIC ([11]; strain 59B046): 0.39 µg/mL (≈ 0.45 µM) | MIC ([11]; strain 59B061): 50 µg/mL (≈ 57.7 µM) | MIC ([12]; strain 59A013): 50 µg/mL (≈ 57.7 µM) | MIC ([12]; strain 59A048): 0.39 µg/mL (≈ 0.45 µM) | MIC [13]: ≤ 0.1 µg/mL | MIC ([14]; strain 01A005): 0.39 µg/mL (≈ 0.45 µM) | MIC ([14]; strain 01A052): 0.39 µg/mL (≈ 0.45 µM) | MIC ([14]; strain 01A106): 0.78 µg/mL (≈ 0.9 µM) | MIC ([14]; strain 01A110): 0.39 µg/mL (≈ 0.45 µM) | MIC ([14]; strain 01A539): 0.78 µg/mL (≈ 0.9 µM) | MIC ([14]; strain 01A543): 3.12 µg/mL (≈ 3.6 µM) | MIC ([15]; strain 01B087): 0.78 µg/mL (≈ 0.9 µM) | MIC ([15]; strain 01B111): 0.39 µg/mL (≈ 0.45 µM) | MIC [16]: 0.1 µg/mL (≈ 0.115 µM) | MIC ([17]; Brachyspira hyodysenteriae, strain 94A001, read-out: MIC): 6.25 µg/mL (≈ 7.21 µM) | activity against Treponema hyodysenteriae ([17]; in vitro): possesses activity against Treponema hyodysenteriae | MIC ([17]; strain 94A002): 6.25 µg/mL (≈ 7.21 µM) | Ratio ([18]; 5 ppm in diet): 0.3 | Ratio ([18]; 10 ppm in diet): 0.0 | Ratio [18, 21]: 0.3 | Ratio ([18]; 20 ppm in diet): 0.0 | Ratio [18, 22]: 0.0 | Ratio ([18]; 30 ppm in diet): 0.0 | Ratio [18, 23]: 0.0 | Ratio ([18]; 40 ppm in diet): 0.0 | Ratio [18, 24]: 0.0 | % Weight Gain ([18]; 5 ppm in diet): 63% | Average Degree of Infection ([18]; 5 ppm in diet): 1.0 | % Weight Gain ([18]; 10 ppm in diet): 36% | Average Degree of Infection ([18]; 10 ppm in diet): 0.0 | Average Degree of Infection [18, 21]: 1.0 | % Weight Gain [18, 21]: 66% | % Weight Gain ([18]; 20 ppm in diet): 14% | Average Degree of Infection ([18]; 20 ppm in diet): 0.0 | Average Degree of Infection [18, 22]: 0.0 | % Weight Gain [18, 22]: 26% | % Weight Gain ([18]; 30 ppm in diet): 0% | Average Degree of Infection ([18]; 30 ppm in diet): 0.0 | Average Degree of Infection [18, 23]: 0.0 | % Weight Gain [18, 23]: 23% | % Weight Gain ([18]; 40 ppm in diet): 0% | Average Degree of Infection ([18]; 40 ppm in diet): 0.0 | Average Degree of Infection [18, 24]: 0.0 | % Weight Gain [18, 24]: 2% | control of infections due to Eimeria tenella ([18]; diet of chickens at levels of 5 to 40 ppm): effective in controlling infections | antibacterial / growth inhibitory activity [19]: exhibits inhibitory action against the growth of a number of Gram-positive microorganisms | activity against coccidial infections in poultry [20]: excellent activity
